Publication PMC12073785, “Design, Synthesis and Biological Evaluation of 3-Hydrazonoindolin-2-one Derivatives as Novel HIV-1 RNase H Inhibitors” (Molecules, 2025)

Tests used:
[1] = molecular target: T1, HIV-1 RT-associated RNase H (Human immunodeficiency virus type 1 group M subtype B, UniProt P04585); assay: HIV-1 RT-associated RNase H inhibition (fluorescent RNA/DNA hybrid); format: biochemical; conditions: for IC50: HIV-1 RT wt, average of three independent determinations, read-out: IC50, concentration required to inhibit 50% of in vitro RNase H activity; for Fold increase in RNase H inhibitory potency compared to compound 6a: IC50 ratio versus 6a; for Fold increase in RNase H inhibitory potency compared to compound 6t: IC50 ratio versus 6t
T1 construct: HIV-1 group M subtype B heterodimeric reverse transcriptase (RT) was expressed and purified; made in house; host or cells: Escherichia coli strain M15, p6HRT-Prot expression vector
Description: The tested compounds were initially dissolved in dimethyl sulfoxide (DMSO) at a concentration of 50 mM and subsequently serially diluted (ratio 1:3). The compounds were tested as previously described.
Briefly, a reaction mixture containing 50 mM Tris-HCl buffer pH 7.8, 6 mM MgCl2, 1 mM dithiothreitol (DTT), 80 mM KCl, 0.25 μM hybrid RNA/DNA. 25 μM of RNA/DNA hybrid 5′-GAUCUGAGCCUGGAGCU-Fluorescin-3′ (HPLC, dry, QC: Mass Check), 5′-Dabcyl-AGCTCCCAGGCTCAGATC-3′ (HPLC, dry, QC: Mass Check), and increasing concentrations of inhibitors was diluted in DMSO. The activity of the RNase H function associated with HIV-1 RT was quantified by measuring the linear portion of the dose–response curve. The reaction mixture was incubated at 37 °C for 10 min with a Victor Nivo 5 multilabel plate reader (model 1420-051, PerkinElmer, Waltham, MA, USA), and fluorescence signals were recorded at excitation/emission wavelengths of 490/528 nm. Based on the obtained fluorescence data, the inhibitory concentration 50 (IC50) of the target compounds was calculated by interpolation on a dose–response curve. Results are reported as average and standard deviation of at least two independent replicates in triplicate.

[2] = system: HIV-1 (strain IIIB); assay: Anti-HIV-1 (strain IIIB) activity in MT-4 cells, MTT assay; format: cell-based; conditions: for EC50: Human immunodeficiency virus 1, IIIB, MT4, protection of MT-4 cells against HIV-induced cytopathogenicity by 50%; for SI, selectivity index: ratio CC50/EC50, MT-4 cells
Description: (§1) The anti-HIV-1 (strain IIIB) activity evaluation in MT-4 cells was conducted using an optimized MTT assay. The cell lines were obtained from the laboratory (Prof. Erik De Clercq, Rega Institute for Medical Research, KU Leuven, Herestraat 49, Leuven, Belgium). Compounds were serially diluted (5-fold increments, starting from 10× concentration) and dispensed into 96-well plates (25 µL/well) via an automated Biomek 3000 workstation (Beckman Instruments, Fullerton, CA, USA). Parallel experimental groups included virus-infected (50 µL HIV inoculum, 100–300 TCID50) and mock-infected controls (50 µL culture medium). MT-4 cells were centrifuged (220× g, 5 min), resuspended to 6 × 10⁵ cells/mL, and seeded (50 µL/well). After a 5-day incubation, cell viability was quantified by measuring mitochondrial dehydrogenase-mediated MTT-to-formazan conversion using dual-wavelength spectrophotometry (540 nm primary, 690 nm reference). The 50% cytotoxic concentration (CC50) was calculated from triplicate median absorbance values, representing the compound concentration reducing mock-infected cell viability by 50%.

[3] = molecular target: T1, HIV-1 RT-associated RNase H; assay: Kinetic analysis of RNase H inhibition, competition with RNA/DNA substrate; format: biochemical; conditions: for Mode of inhibition: Michaelis Menten and Lineweaver-Burk plots; for Ki: competition with RNA substrate
Text: Based on the docking binding predictions, compound 6t and compound 11a were chosen for further characterization. To study the interaction between the chemical compounds and the enzyme in complex with the substrate, we evaluated the competition of compounds 6a and 11a with the RNA substrate (Figure 5). […] Given the results obtained, it is hypothesized that the binding between the inhibitor and the RT protein may modulate the interaction between the enzyme and the RNA substrate, resulting in an increased apparent KM and decreased apparent Vmax when increasing the concentration of the inhibitor.
Kinetic analysis of the DNA-polymerase independent RNase H activity was performed as already reported. Briefly, a reaction mixture containing 50 mM Tris-HCl buffer pH 7.8, 6 mM MgCl2, 1 mM DTT, 80 mM KCl, and increasing concentrations of hybrid RNA/DNA 5′-GAUCUGAGCCUGGGAGCU-Fluorescin-3′/5′-Dabcyl-AGCTCCCAGGCTCAGATC-3′ was incubated at 37 °C for 10 min with a Victor Nivo 5 multilabel plate reader (model 1420-051, PerkinElmer, Waltham, MA, USA), and fluorescence signals were recorded at excitation/emission wavelengths of 490/528 nm. Results were represented according to Michaelis Menten and Lineaweaver–Burke plots.

[4] = system: HIV-1 RT R448A; assay: RNase H inhibition with HIV-1 RT R448A mutant versus RT wt; format: biochemical; conditions: HIV-1 RT R448A versus RT wt
Text: Furthermore, to validate the docking binding prediction of the compounds in the active site of the RT, and the interaction with amino acid residue R448, which was predicted to stabilize the binding of the compounds through a hydrogen bond, we evaluated the activity of compounds 6t and 11a in parallel against the RT wt enzyme and the HIV-1 RT R448A mutant (Figure 6). […] The results confirmed the importance of residue R448 in the binding of inhibitors and validated the predicted binding site to the enzyme; indeed, the less pronounced effect of R448A mutation on 11a inhibitory activity might be explained with the additional hydrogen bound predicted to form between 11a and amino acid Q475 (Figure 6).

[5] = Cytotoxicity in mock-infected MT-4 cells, MTT assay; format: cell-based; conditions: human, mock-infected MT-4 cells; reduction of normal uninfected MT-4 cell viability by 50%
Description: as §1

SMILES: O=C1Nc2ccc(F)cc2C1=NNc1cc(=O)[nH]c(=O)[nH]1 [Compound 6a, 6-(2-(5-Fluoro-2-oxoindolin-3-ylidene)hydrazineyl)pyrimidine-2,4(1H,3H)-dione]
- IC50 [1]: 81.2 ± 11.4 µM

SMILES: O=C1Nc2ccccc2C1=NNc1cc(=O)[nH]c(=O)[nH]1 [Compound 6b, 6-(2-(2-Oxoindolin-3-ylidene)hydrazineyl)pyrimidine-2,4(1H,3H)-dione]
- IC50 [1]: > 100 µM

SMILES: O=C1Nc2ccc(Cl)cc2C1=NNc1cc(=O)[nH]c(=O)[nH]1 [Compound 6c, 6-(2-(5-Chloro-2-oxoindolin-3-ylidene)hydrazineyl)pyrimidine-2,4(1H,3H)-dione]
- IC50 [1]: 58.8 ± 2.4 µM

SMILES: O=C1Nc2ccc(Br)cc2C1=NNc1cc(=O)[nH]c(=O)[nH]1 [Compound 6d, 6-(2-(5-Bromo-2-oxoindolin-3-ylidene)hydrazineyl)pyrimidine-2,4(1H,3H)-dione]
- IC50 [1]: > 100 µM

SMILES: Cc1ccc2c(c1)C(=NNc1cc(=O)[nH]c(=O)[nH]1)C(=O)N2 [Compound 6e, 6-(2-(5-Methyl-2-oxoindolin-3-ylidene)hydrazineyl)pyrimidine-2,4(1H,3H)-dione]
- IC50 [1]: > 100 µM

SMILES: O=C1Nc2ccc(OC(F)(F)F)cc2C1=NNc1cc(=O)[nH]c(=O)[nH]1 [Compound 6f, 6-(2-(2-Oxo-5-(trifluoromethoxy)indolin-3-ylidene)hydrazineyl)pyrimidine-2,4(1H,3H)-dione]
- IC50 [1]: 8.94 ± 1.43 µM

SMILES: O=C1Nc2cc(F)ccc2C1=NNc1cc(=O)[nH]c(=O)[nH]1 [Compound 6g, 6-(2-(6-Fluoro-2-oxoindolin-3-ylidene)hydrazineyl)pyrimidine-2,4(1H,3H)-dione]
- IC50 [1]: 56.8 ± 15.9 µM

SMILES: O=C1Nc2cc(Cl)ccc2C1=NNc1cc(=O)[nH]c(=O)[nH]1 [Compound 6h, 6-(2-(6-Chloro-2-oxoindolin-3-ylidene)hydrazineyl)pyrimidine-2,4(1H,3H)-dione]
- IC50 [1]: > 100 µM

SMILES: O=C1Nc2cc(Br)ccc2C1=NNc1cc(=O)[nH]c(=O)[nH]1 [Compound 6i, 6-(2-(6-Bromo-2-oxoindolin-3-ylidene)hydrazineyl)pyrimidine-2,4(1H,3H)-dione]
- IC50 [1]: 23.6 ± 1.11 µM

SMILES: O=C1Nc2cc(OC(F)(F)F)ccc2C1=NNc1cc(=O)[nH]c(=O)[nH]1 [Compound 6j, 6-(2-(2-Oxo-6-(trifluoromethoxy)indolin-3-ylidene)hydrazineyl)pyrimidine-2,4(1H,3H)-dione]
- IC50 [1]: 15.28 ± 0.01 µM

SMILES: O=C1Nc2c(F)cccc2C1=NNc1cc(=O)[nH]c(=O)[nH]1 [Compound 6k, 6-(2-(7-Fluoro-2-oxoindolin-3-ylidene)hydrazineyl)pyrimidine-2,4(1H,3H)-dione]
- IC50 [1]: > 100 µM

SMILES: O=C1Nc2c(Cl)cccc2C1=NNc1cc(=O)[nH]c(=O)[nH]1 [Compound 6l, 6-(2-(7-Chloro-2-oxoindolin-3-ylidene)hydrazineyl)pyrimidine-2,4(1H,3H)-dione]
- IC50 [1]: 46.6 ± 3.25 µM

SMILES: O=C1Nc2c(Br)cccc2C1=NNc1cc(=O)[nH]c(=O)[nH]1 [Compound 6m, 6-(2-(7-Bromo-2-oxoindolin-3-ylidene)hydrazineyl)pyrimidine-2,4(1H,3H)-dione]
- IC50 [1]: 43.8 ± 7.92 µM

SMILES: Cc1cccc2c1NC(=O)C2=NNc1cc(=O)[nH]c(=O)[nH]1 [Compound 6n, 6-(2-(7-Methyl-2-oxoindolin-3-ylidene)hydrazineyl)pyrimidine-2,4(1H,3H)-dione]
- IC50 [1]: 25.5 ± 1.37 µM

SMILES: O=C1Nc2c(cccc2C(F)(F)F)C1=NNc1cc(=O)[nH]c(=O)[nH]1 [Compound 6o, 6-(2-(2-Oxo-7-(trifluoromethyl)indolin-3-ylidene)hydrazineyl)pyrimidine-2,4(1H,3H)-dione]
- IC50 [1]: 24.1 ± 7.02 µM

SMILES: COc1ccc2c(c1)C(=NNc1cc(=O)[nH]c(=O)[nH]1)C(=O)N2 [Compound 6p, 6-(2-(5-Methoxy-2-oxoindolin-3-ylidene)hydrazineyl)pyrimidine-2,4(1H,3H)-dione]
- IC50 [1]: > 100 µM

SMILES: COc1ccc2c(c1)NC(=O)C2=NNc1cc(=O)[nH]c(=O)[nH]1 [Compound 6q, 6-(2-(6-Methoxy-2-oxoindolin-3-ylidene)hydrazineyl)pyrimidine-2,4(1H,3H)-dione]
- IC50 [1]: > 100 µM

SMILES: COc1cccc2c1NC(=O)C2=NNc1cc(=O)[nH]c(=O)[nH]1 [Compound 6r, 6-(2-(7-Methoxy-2-oxoindolin-3-ylidene)hydrazineyl)pyrimidine-2,4(1H,3H)-dione]
- IC50 [1]: > 100 µM

SMILES: O=C1Nc2cc(F)c(F)cc2C1=NNc1cc(=O)[nH]c(=O)[nH]1 [Compound 6s, 6-(2-(5,6-Difluoro-2-oxoindolin-3-ylidene)hydrazineyl)pyrimidine-2,4(1H,3H)-dione]
- IC50 [1]: 64.9 ± 0.77 µM

SMILES: O=C1Nc2cc(Cl)c(Cl)cc2C1=NNc1cc(=O)[nH]c(=O)[nH]1 [Compound 6t, 6-(2-(5,6-Dichloro-2-oxoindolin-3-ylidene)hydrazineyl)pyrimidine-2,4(1H,3H)-dione]
- EC50 [2]: 110 µM
- SI, selectivity index [2]: 3
- IC50 [1]: 7.85 ± 0.55 µM
- Fold increase in RNase H inhibitory potency compared to compound 6a [1]: ~10 fold
- Mode of inhibition [3]: mixed model inhibitor
- Ki [3]: 2.31 µM
- Vmax (apparent) ([3]; inhibitor 4 μM): 124.2
- Vmax (apparent) ([3]; inhibitor 12 μM): 104.6
- Shift of the inhibition curve (loss of potency) [4]: four-fold
- CC50 at 5 days [5]: 294 µM

SMILES: O=C1Nc2cc(Br)c(Br)cc2C1=NNc1cc(=O)[nH]c(=O)[nH]1 [Compound 6u, 6-(2-(5,6-Dibromo-2-oxoindolin-3-ylidene)hydrazineyl)pyrimidine-2,4(1H,3H)-dione]
- IC50 [1]: 11.8 ± 0.81 µM

SMILES: Cc1cc(C)c2c(c1)C(=NNc1cc(=O)[nH]c(=O)[nH]1)C(=O)N2 [Compound 6v, 6-(2-(5,7-Dimethyl-2-oxoindolin-3-ylidene)hydrazineyl)pyrimidine-2,4(1H,3H)-dione]
- IC50 [1]: 23.6 ± 3.89 µM

SMILES: O=C1Nc2cc(Cl)c(Cl)cc2C1=NNc1c[nH]c(=O)[nH]c1=O [Compound 11a, 5-(2-(5,6-Dichloro-2-oxoindolin-3-ylidene)hydrazineyl)pyrimidine-2,4(1H,3H)-dione]
- EC50 [2]: 39 µM
- SI, selectivity index [2]: 10
- IC50 [1]: 1.9 ± 0.01 µM
- Fold increase in RNase H inhibitory potency compared to compound 6a [1]: 40 fold
- Fold increase in RNase H inhibitory potency compared to compound 6t [1]: 4 fold
- Mode of inhibition [3]: mixed model inhibitor
- Ki [3]: 0.55 µM
- Vmax (apparent) ([3]; inhibitor 1 μM): 105.8
- Vmax (apparent) ([3]; inhibitor 2 μM): 98.24
- Vmax (apparent) ([3]; inhibitor 4 μM): 41.29
- Shift of the inhibition curve (loss of potency) [4]: two-fold
- CC50 at 5 days [5]: 402 µM

SMILES: O=C1Nc2cc(Br)c(Br)cc2C1=NNc1c[nH]c(=O)[nH]c1=O [Compound 11b, 5-(2-(5,6-Dibromo-2-oxoindolin-3-ylidene)hydrazineyl)pyrimidine-2,4(1H,3H)-dione]
- EC50 [2]: 44.9 µM
- SI, selectivity index [2]: 8
- IC50 [1]: 2.2 ± 0.2 µM
- Fold increase in RNase H inhibitory potency compared to compound 6a [1]: 40 fold
- Fold increase in RNase H inhibitory potency compared to compound 6t [1]: 4 fold
- CC50 at 5 days [5]: 349 µM
